Eight compounds from ChEMBL document CHEMBL4831556, “Discovery of a Novel Potent and Selective Calcium Release-Activated Calcium Channel Inhibitor: 2,6-Difluoro-N-(2'-methyl-3'-(4-methyl-5-oxo-4,5-dihydro-1,3,4-oxadiazol-2-yl)-[1,1'-biphenyl]-4-yl)benzamide. Structure-Activity Relationship and Preclinical Characterization” (J Med Chem, 2021) can be followed below.

Data set [1] in a line: AUClast in Lewis rat at 10 mg/kg, po measured upto 24 hrs by LC-MS/MS analysis. The format is ADME, organism-based. More on the design: route oral, dose 10 mg/kg, time <=24. The settings on record: in vivo.
Data set [2] deals with T1, ORAI1/STIM1 (Homo sapiens, UniProt Q13586+Q96D31). As to the kind of experiment: Inhibition of Orai1/STIM1 (unknown origin). The class given is protein-complex assay.
The target of data set [3] is Protein orai-2/Stromal interaction molecule 1 (Homo sapiens, UniProt Q13586+Q96SN7). As to the kind of experiment: Inhibition of Orai2/STIM1 (unknown origin). The format is protein-complex assay.
Data set [4] is described as follows: Inhibition of SOCE in rat RBL-2H3 cells preincubated for 5 mins with thapsigargin followed by calcium chloride addition and measured after 5 mins by Fura-2AM dye based analysis. The class given is cell-based.
Data set [5] has as its target T1, ORAI1/STIM1. As to the kind of experiment: Inhibition of Orai1/STIM1 (unknown origin) expressed in HEK293 cells assessed as reduction in Ca2+-release activated Ca2+ entry current by manual patch clamp based electrophysiological method. The format is cell-based. Background: Patch clamp records ionic current or voltage across a cell membrane.
In data set [6] the target is T1, ORAI1/STIM1. As to the kind of experiment: Inhibition of human STIM1/Orai1 expressed in HEK293 cells assessed as reduction in Orai1 current by electrophysiological method. The class given is cell-based.
In data set [7] the target is Stromal interaction molecule 1/Protein orai-3 (Homo sapiens, UniProt Q13586+Q9BRQ5). As to the kind of experiment: Inhibition of human STIM1/Orai3 expressed in HEK293 cells assessed as reduction in Orai3 current by electrophysiological method. The class given is cell-based.
A short description of data set [8]: Tmax in collagen-induced rheumatoid arthritis DBA/1J mouse model at 0.75 mg/kg, po administered once daily for 15 days. The format is ADME, organism-based. Particulars: in vivo, time 15 day.
The nature of data set [9]: Tmax in collagen-induced rheumatoid arthritis DBA/1J mouse model at 0.75 mg/kg, po administered once daily for 15 days in presence of 3 mg/kg compound 36. The format is ADME, organism-based. The settings on record: in vivo, time 15 day.
The nature of data set [10]: AUClast in collagen-induced rheumatoid arthritis DBA/1J mouse model at 0.75 mg/kg, po administered once daily for 15 days. The class given is ADME, organism-based. Details: route oral, time 15 day, dose 0.75 mg/kg. The settings on record: in vivo.
Data set [11] in a line: AUClast in collagen-induced rheumatoid arthritis DBA/1J mouse model at 0.75 mg/kg, po administered once daily for 15 days in presence of 3 mg/kg compound 36. The format is ADME, organism-based. Details: route oral, dose 0.75 mg/kg, time 15 day. Particulars: in vivo.
Data set [12] is described as follows: in vivo. Particulars: DBA/1J, mouse, po, 0.75 mg/kg.
Description: Cmax in collagen-induced rheumatoid arthritis DBA/1J mouse model at 0.75 mg/kg, po administered once daily for 15 days
A short description of data set [13]: in vivo. Particulars: DBA/1J, mouse, po, 0.75 mg/kg. This is another data set of the same source.
Data set [14] in a line: Inhibition of SOCE in human Jurkat E6.1 cells preincubated for 10 to 30 mins in presence of thapsigargin followed by calcium chloride addition and measured after 10 mins by FLIPR-tetra analysis. The class given is cell-based.
A short description of data set [15]: AUClast in Lewis rat at 1 mg/kg, iv measured upto 24 hrs by LC-MS/MS analysis. Particulars: in vivo. More on the design: route intravenous, dose 1 mg/kg, time <=24. The format is ADME, organism-based.
The nature of data set [16]: Cmax in Lewis rat at 1 mg/kg, iv measured upto 24 hrs by LC-MS/MS analysis. Details: route intravenous, dose 1 mg/kg, time <=24. The format is ADME, organism-based. Particulars: in vivo.
The nature of data set [17]: Cmax in Lewis rat at 10 mg/kg, po measured upto 24 hrs by LC-MS/MS analysis. The class given is ADME, organism-based. More on the design: route oral, dose 10 mg/kg, time <=24. The settings on record: in vivo.
A short description of data set [18]: Tmax in Lewis rat at 1 mg/kg, iv measured upto 24 hrs by LC-MS/MS analysis. The format is ADME, organism-based. Particulars: in vivo.
Data set [19] is described as follows: Tmax in Lewis rat at 10 mg/kg, po measured upto 24 hrs by LC-MS/MS analysis. The class given is ADME, organism-based. Particulars: in vivo.
A short description of data set [20]: Half life in Lewis rat at 1 mg/kg, iv measured upto 24 hrs by LC-MS/MS analysis. The class given is ADME, organism-based. The settings on record: in vivo.
Data set [21] in a line: Half life in Lewis rat at 10 mg/kg, po measured upto 24 hrs by LC-MS/MS analysis. The format is ADME, organism-based. The settings on record: in vivo.
Data set [22] is described as follows: Clearance in Lewis rat at 1 mg/kg, iv measured upto 24 hrs by LC-MS/MS analysis. The class given is ADME, organism-based. The settings on record: in vivo.
A short description of data set [23]: Volume of distribution at steady state in Lewis rat at 1 mg/kg, iv measured upto 24 hrs by LC-MS/MS analysis. The format is ADME, organism-based. The settings on record: in vivo, read-out: Vdss.
A short description of data set [24]: Oral bioavailability in Lewis rat at 10 mg/kg measured upto 24 hrs by LC-MS/MS analysis. The class given is ADME, organism-based. Particulars: in vivo.

Molecules are shown by their SMILES.

T1 sequence (Q96D31 whole entry): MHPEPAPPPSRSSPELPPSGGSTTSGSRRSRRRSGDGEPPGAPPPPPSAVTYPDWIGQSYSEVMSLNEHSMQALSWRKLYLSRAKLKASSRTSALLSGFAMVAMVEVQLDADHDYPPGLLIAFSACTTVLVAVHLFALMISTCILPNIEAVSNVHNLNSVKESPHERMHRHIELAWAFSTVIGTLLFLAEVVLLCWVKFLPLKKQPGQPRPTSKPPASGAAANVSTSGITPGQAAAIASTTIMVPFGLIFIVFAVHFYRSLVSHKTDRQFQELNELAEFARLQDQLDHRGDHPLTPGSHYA
T1 sequence (Q13586 whole entry): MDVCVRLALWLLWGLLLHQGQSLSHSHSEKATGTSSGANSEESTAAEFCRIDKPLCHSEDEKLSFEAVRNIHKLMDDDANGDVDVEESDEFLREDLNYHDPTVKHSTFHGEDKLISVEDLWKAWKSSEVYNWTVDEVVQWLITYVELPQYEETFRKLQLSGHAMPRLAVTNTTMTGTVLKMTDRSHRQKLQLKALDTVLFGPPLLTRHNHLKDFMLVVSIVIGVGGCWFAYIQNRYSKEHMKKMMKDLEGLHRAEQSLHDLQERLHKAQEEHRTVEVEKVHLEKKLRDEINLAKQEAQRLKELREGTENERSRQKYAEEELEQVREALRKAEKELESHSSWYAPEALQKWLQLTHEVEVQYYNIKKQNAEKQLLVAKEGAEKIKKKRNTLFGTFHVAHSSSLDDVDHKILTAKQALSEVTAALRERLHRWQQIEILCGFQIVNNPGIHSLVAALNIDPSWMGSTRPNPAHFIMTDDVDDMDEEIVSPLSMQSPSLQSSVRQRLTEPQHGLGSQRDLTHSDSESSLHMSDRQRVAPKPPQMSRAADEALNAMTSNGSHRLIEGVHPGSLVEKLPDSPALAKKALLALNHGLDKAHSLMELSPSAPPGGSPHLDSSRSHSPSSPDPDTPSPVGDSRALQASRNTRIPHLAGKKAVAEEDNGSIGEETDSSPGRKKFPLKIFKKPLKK
Protein orai-2/Stromal interaction molecule 1, sequence (Q96SN7 whole entry): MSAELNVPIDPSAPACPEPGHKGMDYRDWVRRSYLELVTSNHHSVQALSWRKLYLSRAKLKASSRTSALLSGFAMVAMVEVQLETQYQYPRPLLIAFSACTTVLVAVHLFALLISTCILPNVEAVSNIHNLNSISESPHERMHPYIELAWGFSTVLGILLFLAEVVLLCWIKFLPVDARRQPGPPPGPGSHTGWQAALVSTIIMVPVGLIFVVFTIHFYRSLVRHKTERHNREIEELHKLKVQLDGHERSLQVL
Protein orai-2/Stromal interaction molecule 1, sequence (Q13586 whole entry): as the sequence (Q13586 whole entry) above

As usually defined, the AUC(0-t) is exposure summed from dosing to a finite time, without extrapolation to infinity. `Cc1ccc(C2=NOC(C)(C)C2=O)cc1-c1cnc(NC(=O)c2c(F)cccc2F)cn1` had an AUC(0-t) at 24 h in data set [1] of 13 µM·h.

By IC50 is commonly meant the concentration that inhibits the measured activity by half. With `Cc1cccc(F)c1C(=O)Nc1cnc(-c2cc3c(cc2Cl)OC(F)(F)O3)cn1` [ZEGOCRACTIN], the IC50 turned out to be 119 nM against ORAI1/STIM1 [2] and 895 nM in data set [3].

As to `O=C(Nc1ccc(-n2nc(C(F)(F)F)cc2C(F)(F)F)cc1)c1ccncc1F`, the IC50 in data set [4] stood at 490 nM.

With `O=C(Nc1ccn(Cc2c(F)cccc2C(F)(F)F)n1)c1c(F)cccc1F`, at ORAI1/STIM1 [5], the IC50 stood at 1000 nM.

In the case of `O=C(Nc1ccn(Cc2ccc(O)cc2C(F)(F)F)n1)c1c(F)cccc1F`, the IC50 (at ORAI1/STIM1 [6]; in [7]) was 4 µM in each case.

As usually defined, the Tmax is the time at which the peak concentration occurs. In general, Cmax refers to the highest concentration seen after dosing. On to `CN(Cc1cnc2nc(N)nc(N)c2n1)c1ccc(C(=O)N[C@@H](CCC(=O)O)C(=O)O)cc1` [METHOTREXATE], for which the Tmax in [8] and in data set [9] was 1 h throughout. The results for the AUC(0-t) at 360 h in data set [10] and in data set [11] were 0.4 µM·h and 0.6 µM·h, respectively. Moreover, the Cmax at 360 h in the data set “in vivo [12]” came out at 100 nM; in “in vivo [13]”, 200 nM.

`O=C(Nc1ccc(-c2cc(C(F)(F)F)ccc2Cl)cc1)c1c(F)cccc1F`: the AUC(0-t) at 24 h in data set [1] was 0.93 µM·h.

Usually half-life stands for the time in which the quantity being followed falls by half. For orientation: clearance means a measure of how efficiently the substance is removed, as volume per time. A high value points to a high capacity for elimination. As usually defined, the bioavailability is the share of a dose that reaches the circulation, judged against a reference dose that is usually intravenous. As to `Cc1ccc(-c2nn(C)c(=O)o2)cc1-c1ccc(NC(=O)c2c(F)cccc2F)cc1`, the IC50 in [14] turned out to be 140 nM. The results for the AUC(0-t) at 24 h in data set [15] and in data set [1] were 27 µM·h and 75 µM·h, respectively. Further, the Cmax in data set [16] was 4.4 µM; in data set [17], 4.1 µM. Also, the results for the Tmax in [18] and in data set [19] were 4.8 min and 4.8 h, respectively. Also, the half-life in data set [20] was 420 min; in [21], 912 min. In data set [22], the clearance amounted to 1.4 mL/min/kg. For the same compound, the Vd in data set [23] worked out at 0.7 L/kg. The compound further displayed a bioavailability in data set [24] of 28%.
